How the values were obtained:
SHSY5Y cell = experiment: Exposure of SHSY5Y neuroblastoma cells to differentiation stimulants (neuron projection extension, marker enzyme expression); type: cell-based; conditions: human neuroblastoma
Text: The functions of (1) and (2) are different, but share the same properties in terms of extension of neuron projection. Therefore, cellular components necessary for these two intracellular alteration were specified experimentally by means of RNA interference method. As such, it was obtained that the component collection (3) necessary for the alteration from SHSY5Y to (1) are {JAK1, JAK3, ROR, and RET}. On the other hand, the component collection (4) necessary for the alteration from SHSY5Y cells to (2), are {NTRK1, EPHB2, INSR, RDGFRA, ROR and RET}. When comparing and calculation of intersection is done for (3) and (4), the intersection (5) was obtained to read {ROR and RET}. Next, the collection (6) {JAK1 and JAK3} by subtraction of (3)−(5) and the collection (5) were analyzed in terms of an intermolecular interaction, and the existence of a pathway of a molecular signals from (6) to (5) (FIG. 3A) was determined. Furthermore, the collection (7) which was obtained by the subtraction of (4)−(5), and the collection (5) were analyzed in terms of an intermolecular interaction, and the existence of a pathway of molecular signals from (7) to (5) (FIG. 3B) was further determined. The common components and pathway relating to the projection extension by retinoic acid (RA) and Nerve Growth Factor (NGF) are shown in FIG. 4.

MCF7 = MCF7 breast cancer cells; cited from earlier work
SK-BR-3 = SK-BR-3 breast cancer cell; stated as known; cited from earlier work
T-47D cell = conditions: T-47D human derived breast cancer cell, compared with SK-BR-3; cited from earlier work

Row | Compound | expression of tyrosine hydroxylase (SHSY5Y cell) | extension of neuron projection (SHSY5Y cell) | DXR sensitivity / resistance (MCF7) | effect on cell growth (SK-BR-3) | DXR sensitivity (T-47D cell)
1 | Nerve Growth Factor: Nerve Growth Factor, stimulant triggering neurite outgrowth of SHSY5Y cells | tyrosine hydroxylase was expressed | caused extension of neuron projection |  |  | 
2 | COc1cccc2c1C(=O)c1c(O)c3c(c(O)c1C2=O)C[C@@](O)(C(=O)CO)C[C@@H]3O[C@H]1C[C@H](N)[C@H](O)[C@H](C)O1 [doxorubicin] |  |  | DXR resistance | growth inhibition | same DXR sensitivity as the SK-BR-3

Reference: US20090004171A1, “COMPOUND PROFILING METHOD” (CYTOPATHFINDER, INC., priority 2007, published 2009)
